Each block holds one compound with its values, some of them ahead of it. Active and inactive are the calls of the source.
Assays:
[1] = biological target: Ubiquitin carboxyl-terminal hydrolase BAP1 (Homo sapiens, UniProt Q92560); experiment: BAP1 deubiquitinase inhibitors, dose response, biochemical (AID 714); assay type: functional
[2] = biological target: NAD-dependent protein deacylase sirtuin-5, mitochondrial (Homo sapiens, UniProt Q9NXA8); experiment: SIRT5 desuccinylase inhibitors, dose response, biochemical, fluorescence imaging, cherry-pick, set 5 (AID 720591);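 further: desuccinylation of succinyl peptide AMC substrate read as fluorescence after trypsin release; potency of inhibitors that lower fluorescence and may act on trypsin instead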
Sequence of NAD-dependent protein deacylase sirtuin-5, mitochondrial (Q9NXA8 whole entry): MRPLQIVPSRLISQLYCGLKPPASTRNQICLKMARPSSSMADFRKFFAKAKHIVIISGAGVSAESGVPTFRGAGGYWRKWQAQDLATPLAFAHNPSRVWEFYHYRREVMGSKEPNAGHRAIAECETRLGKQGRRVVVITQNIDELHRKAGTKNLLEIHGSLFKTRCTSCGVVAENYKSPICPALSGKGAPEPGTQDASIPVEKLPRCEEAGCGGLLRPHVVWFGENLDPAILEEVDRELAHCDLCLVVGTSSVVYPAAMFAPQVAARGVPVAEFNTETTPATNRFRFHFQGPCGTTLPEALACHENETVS

Kallikrein-7 = Kallikrein-7 (Homo sapiens, UniProt P49862); experiment: Fluorescence Intensity-based biochemical primary high throughput dose response assay to identify activators of kallikrein-7 (K7) zymogen.
Sequence of Kallikrein-7 (P49862 whole entry): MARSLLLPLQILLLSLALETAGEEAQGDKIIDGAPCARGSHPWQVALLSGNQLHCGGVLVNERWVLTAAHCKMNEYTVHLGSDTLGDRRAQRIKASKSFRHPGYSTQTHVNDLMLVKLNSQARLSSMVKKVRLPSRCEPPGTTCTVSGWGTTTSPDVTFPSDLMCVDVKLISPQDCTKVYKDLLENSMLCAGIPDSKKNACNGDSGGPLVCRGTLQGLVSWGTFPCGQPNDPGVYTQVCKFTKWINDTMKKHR

Estrogen receptor beta [3] = biological target: T1, Estrogen receptor beta (Homo sapiens, UniProt Q92731);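 further: recombinant ER-beta bound to coactivator SRC1 peptide in presence of estradiol agonist; inhibitors block coactivator peptide binding and lower the FRET signal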
T1 sequence (Q92731 whole entry): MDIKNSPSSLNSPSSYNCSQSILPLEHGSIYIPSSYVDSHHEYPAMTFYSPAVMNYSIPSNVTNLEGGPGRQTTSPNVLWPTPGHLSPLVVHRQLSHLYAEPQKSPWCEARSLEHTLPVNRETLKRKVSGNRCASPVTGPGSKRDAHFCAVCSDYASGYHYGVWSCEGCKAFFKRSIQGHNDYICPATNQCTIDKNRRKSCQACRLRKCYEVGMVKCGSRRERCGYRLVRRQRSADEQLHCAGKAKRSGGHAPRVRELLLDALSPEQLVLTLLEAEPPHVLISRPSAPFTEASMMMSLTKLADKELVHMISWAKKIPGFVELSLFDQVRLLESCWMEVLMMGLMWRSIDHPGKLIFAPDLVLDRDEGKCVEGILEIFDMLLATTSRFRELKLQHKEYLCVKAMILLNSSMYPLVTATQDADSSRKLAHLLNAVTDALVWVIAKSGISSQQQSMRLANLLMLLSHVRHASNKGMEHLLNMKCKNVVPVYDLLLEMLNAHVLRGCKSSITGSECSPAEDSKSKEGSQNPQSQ

[4] = biological target: T2, Low molecular weight phosphotyrosine protein phosphatase (Homo sapiens, UniProt P24666); assay type: functional; conditions: read-out: IC50_Mean;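 further: Dose-response confirmation assay measuring inhibition of LMPTP enzyme activity by fluorescence intensity read-out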
T2 sequence (P24666 whole entry): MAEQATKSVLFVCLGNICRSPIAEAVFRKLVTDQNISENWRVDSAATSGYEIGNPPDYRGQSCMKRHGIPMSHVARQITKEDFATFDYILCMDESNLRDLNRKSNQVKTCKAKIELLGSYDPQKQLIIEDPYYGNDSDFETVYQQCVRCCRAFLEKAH

[5] = Artemis endonuclease inhibitor potency, dose response, biochemical, fluorescence intensity (AID 720701); assay type: functional;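 further: Artemis endonuclease enzyme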
[6] = biological target: T3, Zinc finger protein mex-5 (Caenorhabditis elegans, UniProt Q9XUB2); experiment: MEX-5/TCR-2 RNA interaction inhibitors, dose response, biochemical, C. elegans, fluorescence polarization (AID 1960)
T3 sequence (Q9XUB2 whole entry): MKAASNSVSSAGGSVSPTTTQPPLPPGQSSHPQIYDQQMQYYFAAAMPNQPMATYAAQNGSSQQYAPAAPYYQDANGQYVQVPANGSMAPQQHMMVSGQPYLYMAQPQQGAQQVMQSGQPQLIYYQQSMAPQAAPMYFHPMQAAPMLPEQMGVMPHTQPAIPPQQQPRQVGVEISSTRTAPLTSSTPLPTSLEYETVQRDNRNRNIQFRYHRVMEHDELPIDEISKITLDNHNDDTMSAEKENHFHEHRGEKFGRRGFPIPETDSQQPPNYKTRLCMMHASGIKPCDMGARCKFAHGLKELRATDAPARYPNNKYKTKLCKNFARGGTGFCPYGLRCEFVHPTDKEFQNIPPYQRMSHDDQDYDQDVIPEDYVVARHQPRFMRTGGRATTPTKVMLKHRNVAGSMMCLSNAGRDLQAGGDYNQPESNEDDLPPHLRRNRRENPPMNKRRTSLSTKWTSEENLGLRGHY

Bcl-2-like protein 10 = biological target: T4, Bcl-2-like protein 10 (Homo sapiens, UniProt Q9HD36); experiment: displacers of TR3 peptide from Bcl-B, primary screen, selectivity assay for Bfl-1 inhibitor project, biochemical, fluorescence polarization, FITC-TR3 peptide (AID 748);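 further: fluorescence polarization from a fluorescein-labelled TR3 peptide binding purified Bcl-B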
T4 sequence (Q9HD36 whole entry): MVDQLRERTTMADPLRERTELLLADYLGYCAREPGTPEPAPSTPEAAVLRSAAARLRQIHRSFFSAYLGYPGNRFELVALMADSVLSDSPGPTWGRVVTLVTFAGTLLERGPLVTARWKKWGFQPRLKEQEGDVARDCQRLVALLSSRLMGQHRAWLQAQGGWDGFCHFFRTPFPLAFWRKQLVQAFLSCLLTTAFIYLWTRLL

Large T antigen = Large T antigen (Simian virus 40, UniProt P03070); assay type: functional, Betapolyomavirus macacae;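 further: Confirmatory-stage PubChem screen for compounds that inhibit SV40 T antigen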
Sequence of Large T antigen (P03070 whole entry): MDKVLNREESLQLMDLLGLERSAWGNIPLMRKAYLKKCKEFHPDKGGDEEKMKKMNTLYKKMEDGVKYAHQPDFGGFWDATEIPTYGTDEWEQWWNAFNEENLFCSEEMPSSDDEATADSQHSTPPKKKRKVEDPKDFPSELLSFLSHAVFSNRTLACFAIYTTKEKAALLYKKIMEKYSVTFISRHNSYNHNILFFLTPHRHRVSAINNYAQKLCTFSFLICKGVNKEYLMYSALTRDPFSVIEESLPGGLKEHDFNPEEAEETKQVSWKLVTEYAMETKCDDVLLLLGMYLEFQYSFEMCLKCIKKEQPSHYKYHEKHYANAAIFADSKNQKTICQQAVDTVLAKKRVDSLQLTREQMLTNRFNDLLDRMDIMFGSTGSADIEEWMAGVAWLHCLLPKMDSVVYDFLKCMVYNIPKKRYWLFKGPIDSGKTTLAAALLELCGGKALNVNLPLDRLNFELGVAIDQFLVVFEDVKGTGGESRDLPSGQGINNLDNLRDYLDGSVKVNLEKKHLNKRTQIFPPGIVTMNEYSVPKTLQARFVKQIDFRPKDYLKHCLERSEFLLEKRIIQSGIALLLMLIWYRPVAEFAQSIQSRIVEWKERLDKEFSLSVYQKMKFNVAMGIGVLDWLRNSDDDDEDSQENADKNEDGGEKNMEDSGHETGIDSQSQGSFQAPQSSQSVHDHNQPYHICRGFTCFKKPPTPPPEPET

[7] = biological target: T5, Polyadenylate-binding protein 1 (Homo sapiens, UniProt P11940); experiment: PABP1 MLLE–PAM2 binding inhibitor potency, dose response, biochemical, fluorescence polarization, FITC-PAM2 peptide (AID 602259); assay type: functional; conditions: read-out: IC50_Mean
T5 sequence (P11940 whole entry): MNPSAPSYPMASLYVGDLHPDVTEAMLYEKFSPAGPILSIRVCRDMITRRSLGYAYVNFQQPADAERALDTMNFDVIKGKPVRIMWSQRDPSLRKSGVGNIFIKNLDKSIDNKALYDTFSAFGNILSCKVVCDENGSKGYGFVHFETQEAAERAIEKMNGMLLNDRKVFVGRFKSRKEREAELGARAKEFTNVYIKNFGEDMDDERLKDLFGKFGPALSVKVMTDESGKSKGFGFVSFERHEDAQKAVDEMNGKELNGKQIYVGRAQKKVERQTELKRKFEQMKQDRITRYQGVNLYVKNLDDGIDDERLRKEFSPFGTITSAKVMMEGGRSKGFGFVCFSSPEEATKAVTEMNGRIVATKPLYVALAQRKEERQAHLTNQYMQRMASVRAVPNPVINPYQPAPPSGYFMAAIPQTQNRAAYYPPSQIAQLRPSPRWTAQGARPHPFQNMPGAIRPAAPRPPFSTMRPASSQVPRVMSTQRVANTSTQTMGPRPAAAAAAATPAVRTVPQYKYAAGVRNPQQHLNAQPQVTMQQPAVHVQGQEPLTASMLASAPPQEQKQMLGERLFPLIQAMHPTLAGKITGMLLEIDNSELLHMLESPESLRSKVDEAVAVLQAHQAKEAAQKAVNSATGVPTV

[8] = biological target: Glutathione-S-transferase (Schistosoma japonicum, UniProt Q26513); experiment: biotin-GST/anti-GST TR-FRET signal inhibitors, dose response, artefact control for Vif-APOBEC3G degradation inhibitor project, biochemical (AID 1117362); assay type: functional
Sequence of Glutathione-S-transferase (Q26513 whole entry): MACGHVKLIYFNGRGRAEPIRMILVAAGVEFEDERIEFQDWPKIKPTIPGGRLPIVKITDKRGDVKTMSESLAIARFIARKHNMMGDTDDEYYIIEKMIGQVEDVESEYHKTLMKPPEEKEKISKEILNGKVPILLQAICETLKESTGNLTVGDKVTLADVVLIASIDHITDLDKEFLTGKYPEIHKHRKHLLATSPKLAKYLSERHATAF

Genome polyprotein = Genome polyprotein (dengue virus type 2, UniProt P29990); experiment: Dengue-2 NS5 methyltransferase inhibitors, primary screen, biochemical, confirmation dose response (AID 588689); assay type: functional
Sequence of Genome polyprotein (P29990 2492-3391 limits assumed): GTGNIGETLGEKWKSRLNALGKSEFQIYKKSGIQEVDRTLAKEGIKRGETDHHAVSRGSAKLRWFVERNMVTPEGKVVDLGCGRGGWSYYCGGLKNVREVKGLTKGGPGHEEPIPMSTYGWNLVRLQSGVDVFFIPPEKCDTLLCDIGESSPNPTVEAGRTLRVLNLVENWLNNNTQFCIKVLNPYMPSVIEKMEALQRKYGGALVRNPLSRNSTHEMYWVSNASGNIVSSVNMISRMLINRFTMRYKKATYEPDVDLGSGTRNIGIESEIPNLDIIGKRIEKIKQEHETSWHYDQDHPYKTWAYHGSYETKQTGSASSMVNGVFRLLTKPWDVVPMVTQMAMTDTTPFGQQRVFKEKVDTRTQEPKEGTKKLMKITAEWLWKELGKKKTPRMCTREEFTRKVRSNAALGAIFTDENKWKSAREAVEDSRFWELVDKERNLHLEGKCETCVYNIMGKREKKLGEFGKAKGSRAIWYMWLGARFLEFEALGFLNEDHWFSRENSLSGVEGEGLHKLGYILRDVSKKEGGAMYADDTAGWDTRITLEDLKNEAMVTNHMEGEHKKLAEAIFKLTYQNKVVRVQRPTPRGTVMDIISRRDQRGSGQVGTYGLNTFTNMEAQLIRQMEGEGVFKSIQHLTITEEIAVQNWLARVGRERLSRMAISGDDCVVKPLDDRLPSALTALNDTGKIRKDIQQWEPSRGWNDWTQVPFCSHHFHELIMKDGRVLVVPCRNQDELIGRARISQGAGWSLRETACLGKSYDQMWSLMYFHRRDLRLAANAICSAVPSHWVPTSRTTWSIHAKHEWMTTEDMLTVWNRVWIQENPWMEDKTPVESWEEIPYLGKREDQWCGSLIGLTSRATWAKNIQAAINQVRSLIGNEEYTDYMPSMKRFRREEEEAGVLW

[9] = biological target: T5, Polyadenylate-binding protein 1; experiment: PABP1 MLLE–PAM2 interaction inhibitors, dose response, miRNA deadenylation inhibitor project, biochemical, fluorescence polarization, Cy5-PAM2 peptide, secondary (AID 602260); assay type: functional; conditions: read-out: IC50_Mean
[10] = biological target: T6, RNA-binding protein pos-1 (Caenorhabditis elegans, UniProt G5EF15); experiment: inhibitors of POS-1/mex-3 RNA binding, dose response, biochemical, fluorescence polarization (AID 1964);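 further: purified POS-1 fused to maltose binding protein made in E. coli; potency of compounds blocking POS-1 binding to fluorescent RNA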
T6 sequence (G5EF15 whole entry): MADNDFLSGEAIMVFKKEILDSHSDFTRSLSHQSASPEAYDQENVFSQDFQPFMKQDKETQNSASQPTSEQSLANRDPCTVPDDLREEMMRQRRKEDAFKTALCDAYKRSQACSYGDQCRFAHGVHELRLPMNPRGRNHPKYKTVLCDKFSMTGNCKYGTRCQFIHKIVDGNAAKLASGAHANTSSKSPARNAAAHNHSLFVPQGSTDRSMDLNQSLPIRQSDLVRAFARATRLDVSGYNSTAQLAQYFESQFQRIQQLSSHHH

Estrogen receptor beta [11] = biological target: T1, Estrogen receptor beta; experiment: ERβ–SRC-3 coactivator interaction inhibitors, confirmation, orthogonal assay, biochemical, ELISA, streptavidin-HRP readout (AID 1060)
[12] = tested on: Streptococcus sp. 'group A'; experiment: growth inhibition of control SK(-) GAS strain, dose response, counter-screen for streptokinase expression inhibitor project, luminescence, kanamycin, BacTiterGlo, confirmation (AID 1900); assay type: functional, organism-based
[13] = Vero cell cytotoxicity, dose response, cytotoxicity control for Vif-APOBEC3G degradation inhibitor project, Vero cells (AID 1117358); assay type: functional; conditions: Human immunodeficiency virus 1, Vero
[14] = cytotoxicity toward NIH3T3 fibroblasts, dose response, counter-screen, cell-based, ATP luminescence, mouse fibroblasts (AID 2010); assay type: functional;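 further: cells exposed to compound for about 90 hours before reading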
[15] = inhibitors of intracellular T. cruzi replication, confirmation, NIH3T3 host cells, beta-gal luminescence (AID 2044); assay type: functional, cell-based;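 further: intracellular parasites grown in NIH/3T3 mouse fibroblasts as host cells; luminescent beta-galactosidase reporter signal from transgenic T. cruzi replicating inside host cells; inhibitors lower the luminescence signal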
Streptococcus = experiment: Group A Streptococcus viability loss, dose response, counter-screen for streptokinase expression inhibitor project, luminescence, BacTiterGlo (AID 1915); assay type: functional, organism-based;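 further: potency for reduction of bacterial viability or growth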
[16] = biological target: E3 ubiquitin-protein ligase Mdm2 (Homo sapiens, UniProt Q00987); experiment: enhancers of MDM2-luciferase reporter signal, concentration-effect titration, project on inhibitors of MDM2 ubiquitin ligase, cellular assay, luminescent readout, 384-well plate format (AID 1394); assay type: functional;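 further: MDM2 E3 inhibitors raise luminescence so EC50 is for signal enhancement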
Sequence of E3 ubiquitin-protein ligase Mdm2 (Q00987 whole entry): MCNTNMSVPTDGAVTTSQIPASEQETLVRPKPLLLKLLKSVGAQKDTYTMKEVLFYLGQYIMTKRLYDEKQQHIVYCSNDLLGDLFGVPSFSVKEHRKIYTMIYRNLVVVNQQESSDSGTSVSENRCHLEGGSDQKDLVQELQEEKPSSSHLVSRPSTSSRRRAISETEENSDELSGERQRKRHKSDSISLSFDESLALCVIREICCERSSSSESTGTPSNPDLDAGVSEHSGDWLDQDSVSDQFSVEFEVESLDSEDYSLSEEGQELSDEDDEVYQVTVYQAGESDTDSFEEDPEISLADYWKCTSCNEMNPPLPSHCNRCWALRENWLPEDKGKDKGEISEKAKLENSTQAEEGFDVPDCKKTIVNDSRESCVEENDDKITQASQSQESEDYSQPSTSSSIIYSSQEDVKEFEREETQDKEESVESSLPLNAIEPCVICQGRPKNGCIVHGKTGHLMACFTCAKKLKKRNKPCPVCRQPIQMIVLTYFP

Sequence of Ubiquitin carboxyl-terminal hydrolase BAP1 (Q92560 whole entry): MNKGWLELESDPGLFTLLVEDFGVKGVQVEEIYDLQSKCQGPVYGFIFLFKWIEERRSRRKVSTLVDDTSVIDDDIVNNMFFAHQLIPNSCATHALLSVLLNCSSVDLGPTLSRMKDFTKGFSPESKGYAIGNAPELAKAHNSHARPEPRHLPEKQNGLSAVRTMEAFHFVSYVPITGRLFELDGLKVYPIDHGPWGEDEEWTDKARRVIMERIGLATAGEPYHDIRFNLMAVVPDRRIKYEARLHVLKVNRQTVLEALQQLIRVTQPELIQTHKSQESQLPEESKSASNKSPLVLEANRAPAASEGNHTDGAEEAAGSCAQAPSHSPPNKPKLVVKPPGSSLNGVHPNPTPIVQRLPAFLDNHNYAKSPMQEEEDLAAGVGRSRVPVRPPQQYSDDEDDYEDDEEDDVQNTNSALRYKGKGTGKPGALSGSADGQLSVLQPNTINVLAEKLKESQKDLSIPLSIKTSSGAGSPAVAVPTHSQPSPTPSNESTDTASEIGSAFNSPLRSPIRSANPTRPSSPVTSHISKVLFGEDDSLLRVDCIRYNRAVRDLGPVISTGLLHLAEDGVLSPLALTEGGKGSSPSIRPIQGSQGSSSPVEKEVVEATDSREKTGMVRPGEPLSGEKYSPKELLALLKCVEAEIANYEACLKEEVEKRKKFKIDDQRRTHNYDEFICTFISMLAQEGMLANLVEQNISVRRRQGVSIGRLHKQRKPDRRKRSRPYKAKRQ

IC50 [1]: > 50 µM (not active)
Structure (SMILES): Nc1nn(S(=O)(=O)c2cccc3nsnc23)cc1-c1ccc(Br)cc1

AC50 [2]: > 30 µM (inactive)
Structure (SMILES): O=C(Cc1nnc(NC(=O)Nc2ccc(Cl)cc2)s1)NCc1ccccc1

EC50 (Kallikrein-7): 13.1 µM (inactive)
Structure (SMILES): COc1ccc(NC(=O)c2cc(-c3ccco3)on2)cc1OC

IC50 [4]: 10.9 µM (active)
IC50 [5]: > 20 µM (inactive)
Structure (SMILES): O=C1CC(c2ccco2)Cc2nc(Nc3nc(-c4ccccc4)c4ccccc4n3)ncc21 (stereo unspecified)

The remaining lines, values behind:

Structure (SMILES): CC(C)COC(=O)c1nnsc1NC(=O)Nc1ccccc1
IC50 (Estrogen receptor beta [3]): > 50 µM (not active)

Structure (SMILES): O=c1oc2c3c4c(cc2s1)CCCN4CCC3
EC50 [6]: 24.1 µM (inconclusive)
IC50 (Bcl-2-like protein 10): 10.4 µM (active)
IC50 (Large T antigen): 17.9 µM (active)
IC50 [7]: 48 µM (inactive)
IC50 [8]: 66.2 µM (active)
IC50 (Genome polyprotein): 86.7 µM (active)
IC50 [9]: > 66 µM (inactive)
EC50 [10]: 28.1 µM (active)
IC50 (Estrogen receptor beta [11]): > 50 µM (not active)

Structure (SMILES): O=C(Nc1nnc(C2CC2)o1)c1ccc(S(=O)(=O)N2CCCc3ccccc32)cc1
EC50 [12]: 2.46 µM (active)
CC50 [13]: 15.1 µM (active)
EC50 [14]: 5.11 µM (active)
EC50 [15]: 1.4 µM (active)
EC50 (Streptococcus): 4 µM (active)

Structure (SMILES): COc1ccc(C(=O)NCCSC2CCCCC2)cc1
EC50 [16]: 13.6 µM (not active)

Source: ChEMBL document CHEMBL1201862, “PubChem BioAssay data set” (2004)
